Key:
[1] = target: T1, Solute carrier family 22 member 12 (Homo sapiens, UniProt Q96S37); assay: Inhibition of URAT1 in human RPTEC assessed as inhibition of [14C]uric acid uptake at 10 uM preincubated for 15 mins followed by [14C]uric acid addition and incubated under shaking condition for 2 hrs by scintillation counter method; type: tissue-based
T1 sequence (Q96S37 whole entry): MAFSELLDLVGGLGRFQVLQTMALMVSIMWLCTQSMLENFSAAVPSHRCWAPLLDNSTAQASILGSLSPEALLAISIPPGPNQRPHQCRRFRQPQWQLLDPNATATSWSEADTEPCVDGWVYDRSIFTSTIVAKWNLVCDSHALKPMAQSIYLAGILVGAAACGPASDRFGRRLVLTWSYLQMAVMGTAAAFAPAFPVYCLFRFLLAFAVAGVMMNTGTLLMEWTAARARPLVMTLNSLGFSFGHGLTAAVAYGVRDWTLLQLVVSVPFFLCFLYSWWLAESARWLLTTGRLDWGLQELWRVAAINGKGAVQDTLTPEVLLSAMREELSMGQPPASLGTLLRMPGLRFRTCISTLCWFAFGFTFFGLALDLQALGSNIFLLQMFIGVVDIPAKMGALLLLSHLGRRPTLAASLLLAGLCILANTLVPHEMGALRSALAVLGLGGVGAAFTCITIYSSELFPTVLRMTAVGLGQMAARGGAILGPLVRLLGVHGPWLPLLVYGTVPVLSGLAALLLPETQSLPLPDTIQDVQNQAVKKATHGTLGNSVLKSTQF

[2] = tested on: mitochondrial respiration; assay: Hepatotoxicity in rat liver mitochondria assessed as inhibition of mitochondrial respiration by measuring mitochondrial respiratory control ratio of oxygen consumption in presence of substrate and ADP to rate after complete conversion of ADP to ATP by Clark-type oxygen electrode method; type: toxicity
[3] = target: T1, Solute carrier family 22 member 12; assay: Inhibition of URAT1 in human RPTEC assessed as inhibition of [14C]uric acid uptake preincubated for 15 mins followed by [14C]uric acid addition and incubated under shaking condition for 2 hrs by scintillation counter method; type: tissue-based
[4] = tested on: mitochondrial respiration; assay: Hepatotoxicity in rat liver mitochondria assessed as inhibition of mitochondrial respiration by measuring mitochondrial respiratory control ratio of oxygen consumption in presence of substrate and ADP to rate after complete conversion of ADP to ATP at 100 uM by Clark-type oxygen electrode method; type: toxicity
[5] = Cmax in rat at 3 mg/kg, po by HPLC analysis; type: ADME, organism-based; set-up: route oral, dose 3 mg/kg; conditions: in vivo
[6] = Drug excretion rate in rat urine at 3 mg/kg, po measured up to 4 hrs by HPLC analysis; type: ADME, organism-based; conditions: read-out: Drug excretion
[7] = Drug excretion in human urine assessed as excretion rate of glucuronide metabolite of phenols measured for 72 hrs by mass balance test; type: ADME, tissue-based
[8] = target: T1, Solute carrier family 22 member 12; assay: Inhibition of human URAT1 expressed in Xenopus laevis oocytes mediated [14C]uric acid uptake at 0.1 uM measured after 60 mins by liquid scintillation counter method relative to control; type: cell-based; conditions: 1 h
[9] = Cmax in rat at 0.3 mg/kg, po; type: ADME, organism-based; set-up: route oral, dose 0.3 mg/kg; conditions: in vivo
[10] = Drug excretion in human urine assessed as excretion rate of sulfate metabolite of phenols measured for 72 hrs by mass balance test; type: ADME
[11] = AUC (0 to infinity) in rat at 0.3 mg/kg, iv; type: ADME, organism-based; set-up: time infinity, route intravenous, dose 0.3 mg/kg; conditions: in vivo
[12] = AUC (0 to 24 hrs) in Cebus monkey at 5 mg/kg, po; type: ADME, organism-based; set-up: route oral, dose 5 mg/kg, time <=24; conditions: in vivo
[13] = Cmax in rat at 0.3 mg/kg, iv; type: ADME, organism-based; set-up: route intravenous, dose 0.3 mg/kg; conditions: in vivo
[14] = target: T1, Solute carrier family 22 member 12; assay: Inhibition of human URAT1 expressed in Xenopus laevis oocytes assessed as inhibition of [14C]uric acid uptake measured after 60 mins by liquid scintillation counter method
[15] = AUC (0 to infinity) in rat at 0.3 mg/kg, po; type: ADME, organism-based; set-up: time infinity, route oral, dose 0.3 mg/kg; conditions: in vivo
[16] = Oral bioavailability in rat at 0.3 mg/kg; type: ADME, organism-based; conditions: in vivo
[17] = Uricosuric effect in Cebus monkey assessed as fractional plasma urate excretion at 5 mg/kg, po measured up to 4 hrs; type: functional; conditions: time hrs <=4
[18] = Acid dissociation constant, pKa of the compound; type: physicochemical
Cytochrome P450 2C9 = Cytochrome P450 2C9 (Homo sapiens, UniProt P11712); assay: Inhibition of CYP2C9 (unknown origin); type: ADME
Chain of Cytochrome P450 2C9 (P11712 whole entry): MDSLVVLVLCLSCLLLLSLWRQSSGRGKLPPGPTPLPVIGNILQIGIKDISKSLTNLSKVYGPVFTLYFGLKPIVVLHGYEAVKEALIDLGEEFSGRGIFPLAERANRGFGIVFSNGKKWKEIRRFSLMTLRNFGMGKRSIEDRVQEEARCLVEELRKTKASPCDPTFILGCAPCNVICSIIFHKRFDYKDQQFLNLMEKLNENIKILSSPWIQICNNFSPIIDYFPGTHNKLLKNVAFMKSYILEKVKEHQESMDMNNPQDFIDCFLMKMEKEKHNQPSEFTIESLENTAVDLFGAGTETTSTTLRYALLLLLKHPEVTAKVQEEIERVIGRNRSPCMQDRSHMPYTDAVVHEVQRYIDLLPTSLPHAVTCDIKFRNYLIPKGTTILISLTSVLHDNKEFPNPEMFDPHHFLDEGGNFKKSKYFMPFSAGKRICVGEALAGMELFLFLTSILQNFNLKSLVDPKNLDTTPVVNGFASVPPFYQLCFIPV

[19] = Uricosuric effect in Cebus monkey assessed as fractional plasma urate excretion at 30 mg/kg, po measured up to 4 hrs; type: functional; conditions: time hrs <=4
[20] = AUC (0 to 24 hrs) in Cebus monkey at 30 mg/kg, po; type: ADME, organism-based; set-up: route oral, dose 30 mg/kg, time <=24; conditions: in vivo

SMILES	inhibition at 10 µM [1]	IC50 [2]	IC50 [3]	inhibition at 100 µM [4]	Cmax [5]	dose excreted at 4 h [6]	further results
CC(C)(C)c1cc(C(=O)N2CCc3ccccc32)cc(C#N)c1O	32.4%	6.6 µM	31.6 µM				
N#Cc1cc(C(=O)N2CCc3ccccc32)cc(C(F)(F)F)c1O	30%		> 100 µM	40%			
N#Cc1cc(C(=O)N2CS(=O)(=O)c3ccccc32)cc(C(F)(F)F)c1O			> 100 µM	12%			
CC(C)c1cc(C(=O)N2CS(=O)(=O)c3ccccc32)cc(C#N)c1O		12 µM	83.3 µM		4460 ng/mL	0.1%	
O=C(c1cc(Cl)c(O)c(Cl)c1)N1CS(=O)(=O)c2ccccc21 [DOTINURAD]	81%	27 µM	6.8 µM		9140 ng/mL	1.1%	Drug excretion [7]: 44.3%; inhibition at 0.1 µM [8]: 78%; Cmax [9]: 1090 ng/mL; Drug excretion [10]: 20%; AUC(0-inf) [11]: 6620 ng·h/mL; AUC(0-t) [12]: 109000 ng·h/mL; Cmax [13]: 2400 ng/mL; IC50 [14]: 0.0372 µM; AUC(0-inf) [15]: 5740 ng·h/mL; bioavailability [16]: 86.8%; Activity [17]: 16.5%
N#Cc1cc(C(=O)N2CSc3ccccc32)cc(C(F)(F)F)c1O	49%	55 µM	13.1 µM		3150 ng/mL	0.1%	inhibition at 0.1 µM [8]: 71%
N#Cc1cc(C(=O)N2CCc3ccccc32)cc(I)c1O	65.1%	53 µM	5.3 µM		5950 ng/mL	0.02%	
CSc1cc(C(=O)N2CS(=O)(=O)c3ccccc32)cc(C#N)c1O	57%		7.1 µM	21%	1080 ng/mL	9.4%	inhibition at 0.1 µM [8]: 44%
N#Cc1cc(C(=O)N2CCc3ccccc32)cc(Cl)c1O	38.2%	31 µM	14.7 µM				
O=C(c1cc(F)c(O)c(Cl)c1)N1CS(=O)(=O)c2ccccc21		63 µM	33.9 µM		7700 ng/mL	4.3%	
CCc1cc(C(=O)N2CS(=O)(=O)c3ccccc32)cc(C#N)c1O	32%	37 µM	> 100 µM		4240 ng/mL	1.7%	inhibition at 0.1 µM [8]: 36%
CSc1cc(C(=O)N2CCc3ccccc32)cc(C#N)c1O	24.2%	40 µM	> 100 µM				
N#Cc1cc(C(=O)N2CCc3ccccc32)cc(C2CC2)c1O	67.8%	24 µM	8.8 µM		1360 ng/mL	0.35%	
N#Cc1cc(C(=O)N2CCc3ccccc32)cc(C#N)c1O	26.3%		83.9 µM	47%			
COc1cc(C(=O)N2CCc3ccccc32)cc(C#N)c1O	21.7%		> 100 µM	-10%			
C#Cc1cc(C(=O)N2CS(=O)(=O)c3ccccc32)cc(C#N)c1O			3.2 µM	13%	1580 ng/mL	12.4%	
O=c1[nH]c(=O)c2[nH]c(=O)[nH]c2[nH]1 [URIC ACID]							pKa [18]: 5.75
N#Cc1cc(C(=O)N2CCc3ccccc32)ccc1O	67.5%		2.5 µM	43%	890 ng/mL	5.9%	
CSc1cc(C(=O)N2CS(=O)(=O)c3ccccc32)cc(Cl)c1O		59 µM	5.7 µM		4640 ng/mL	0.2%	
N#Cc1cc(C(=O)N2CS(=O)(=O)c3ccccc32)cc(C2CC2)c1O	42%	59 µM	19.2 µM		3810 ng/mL	0.6%	inhibition at 0.1 µM [8]: 30%; IC50 (Cytochrome P450 2C9): 57 µM
Cc1c(C)n(C(=O)c2ccc(O)c(C#N)c2)c2ccccc12	52.1%	3.6 µM	10.8 µM				
COc1cc(C(=O)N2CS(=O)(=O)c3ccccc32)cc(C(F)(F)F)c1O			17.8 µM	47%	3990 ng/mL	0%	
N#Cc1cc(C(=O)N2CS(=O)(=O)c3ccccc32)cc(Cl)c1O	25%		> 100 µM	20%	1350 ng/mL	23%	inhibition at 0.1 µM [8]: 29%
COc1cc(C(=O)N2CS(=O)(=O)c3ccccc32)cc(Cl)c1O			4.3 µM	49%	1060 ng/mL	0.1%	
O=C(c1cc(Cl)c(O)c(C(F)(F)F)c1)N1CS(=O)(=O)c2ccccc21		18 µM	2.6 µM		6410 ng/mL	0.1%	
CCc1oc2ccccc2c1C(=O)c1cc(Br)c(O)c(Br)c1 [BENZBROMARONE]	51%	3.1 µM			4420 ng/mL	0%	pKa [18]: 5.17; inhibition at 0.1 µM [8]: 37%; Activity [19]: 11.5%; AUC(0-t) [20]: 95200 ng·h/mL

— ChEMBL document CHEMBL4725450 (ACS Med Chem Lett, 2020)
